Reference: ChEMBL document CHEMBL4813909, “Heterocyclic Diamidine DNA Ligands as HOXA9 Transcription Factor Inhibitors: Design, Molecular Evaluation, and Cellular Consequences in a HOXA9-Dependant Leukemia Cell Model” (J Med Chem, 2019)
The source made the active and inactive calls. No cut-off for these calls is given here.

Experiments:
[1] = Induction of cell death in mouse MigA9 cells harboring mouse Hoxa9 gene assessed as propidium iodide-positive cells at 20 uM incubated for 24 hrs by propidium iodide staining based flow cytometry (reference value: 9.06 +/- 0.53%); type: functional
[2] = Cytotoxicity against mouse MigA9 cells harboring mouse Hoxa9 gene incubated for 72 hrs by MTS assay; type: functional, cell-based; conditions: MigA9, 72 h
[3] = Induction of cell cycle arrest in mouse MigA9 cells harboring mouse Hoxa9 gene assessed as accumulation at sub-G1 phase at 20 uM incubated for 48 hrs by propidium iodide staining based flow cytometry (reference value: 0.76 +/- 0.1%); type: functional
[4] = Induction of cell death in mouse MigA9 cells harboring mouse Hoxa9 gene assessed as propidium iodide-positive cells at 15 uM incubated for 24 hrs by propidium iodide staining based flow cytometry (reference value: 9.06 +/- 0.53%); type: functional
[5] = Drug localization in nucleus of mouse MigA9 cells at 20 uM incubated for 2 hrs by TO-PRO-3/propidium iodide staining based by fluorescence microscopy; type: ADME, subcellular; conditions: miga9, 2 h
HOXA9 DNA binding site [6] = conditions: dose 0.5 µM
HOXA9 DNA binding site [7] = conditions: dose 1.0 µM
HOXA9 DNA binding site [8] = experiment: Inhibition of HOXA9 (unknown origin) expressed in reticulocyte lysate system binding to 32P-radiolabeled DNA Hoxa9-binding site (strand a-CTGCGATGATTTACGACCGC /strand b-GCGGTCGTAAATCATCGCAG) (unknown origin) assessed as HOXA9/DNA inhibition at 2.5 to 20 uM incubated for 20 mins by electrophoretic mobility shift assay relative to control; type: subcellular; conditions: dose 2.5-20 µM
[9] = Drug localization in nucleus of human HT-29 cells at 5 uM incubated for 16 hrs by DiOC6/propidium iodide staining based by fluorescence microscopy; type: ADME, subcellular; conditions: ht-29, 16 h
HOXA9 DNA binding site [10] = conditions: dose 0.5-1 µM
[11] = Induction of cell cycle arrest in mouse MigA9 cells harboring mouse Hoxa9 gene assessed as accumulation at sub-G1 phase at 0.5 uM incubated for 48 hrs by propidium iodide staining based flow cytometry (reference value: 0.76 +/- 0.1%); type: functional
[12] = Induction of cell death in mouse MigA9 cells harboring mouse Hoxa9 gene assessed as propidium iodide-positive cells at 0.5 uM incubated for 24 hrs by propidium iodide staining based flow cytometry (reference value: 9.06 +/- 0.53%); type: functional
[13] = Induction of cell cycle arrest in mouse MigA9 cells expressing mouse Hoxa9 assessed as accumulation at S phase at 0.5 uM incubated for 48 hrs by EdU/propidium iodide staining based flow cytometry (reference value: 46.68 +/- 0.21%); type: functional
[14] = Induction of cell death in mouse MigA9 cells harboring mouse Hoxa9 gene assessed as propidium iodide-positive cells at 1 uM incubated for 24 hrs by propidium iodide staining based flow cytometry relative to control; type: functional
[15] = Induction of cell cycle arrest in mouse MigA9 cells expressing mouse Hoxa9 assessed as accumulation at G0/G1 phase at 0.5 uM incubated for 48 hrs by EdU/propidium iodide staining based flow cytometry (reference value: 48.77 +/- 0.19%); type: functional
[16] = Induction of cell cycle arrest in mouse MigA9 cells expressing mouse Hoxa9 assessed as accumulation at G2/M phase at 0.5 uM incubated for 48 hrs by EdU/propidium iodide staining based flow cytometry (reference value: 4.55 +/- 0.16%); type: functional
[17] = Induction of cell death in mouse MigA9 cells harboring mouse Hoxa9 gene assessed as propidium iodide-positive cells at 1 uM incubated for 48 hrs by propidium iodide staining based flow cytometry (reference value: 8.75 +/- 0.2%); type: functional
[18] = Induction of cell death in mouse MigA9 cells harboring mouse Hoxa9 gene assessed as propidium iodide-positive cells at 0.5 uM incubated for 48 hrs by propidium iodide staining based flow cytometry (reference value: 8.75 +/- 0.2%); type: functional
[19] = Induction of cell death in mouse MigA9 cells harboring mouse Hoxa9 gene assessed as propidium iodide-positive cells at 5 uM incubated for 48 hrs by propidium iodide staining based flow cytometry (reference value: 8.75 +/- 0.2%); type: functional
[20] = Induction of cell cycle arrest in mouse MigA9 cells expressing mouse Hoxa9 assessed as accumulation at G0/G1 phase at 5 uM incubated for 48 hrs by EdU/propidium iodide staining based flow cytometry (reference value: 48.77 +/- 0.19%); type: functional
[21] = Induction of cell death in mouse MigA9 cells harboring mouse Hoxa9 gene assessed as propidium iodide-positive cells at 5 uM incubated for 24 hrs by propidium iodide staining based flow cytometry (reference value: 9.06 +/- 0.53%); type: functional
[22] = Induction of cell cycle arrest in mouse MigA9 cells harboring mouse Hoxa9 gene assessed as accumulation at sub-G1 phase at 5 uM incubated for 48 hrs by propidium iodide staining based flow cytometry (reference value: 0.76 +/- 0.1%); type: functional
[23] = Induction of cell cycle arrest in mouse MigA9 cells expressing mouse Hoxa9 assessed as accumulation at G2/M phase at 5 uM incubated for 48 hrs by EdU/propidium iodide staining based flow cytometry (reference value: 4.55 +/- 0.16%); type: functional
[24] = Induction of cell cycle arrest in mouse MigA9 cells expressing mouse Hoxa9 assessed as accumulation at S phase at 5 uM incubated for 48 hrs by EdU/propidium iodide staining based flow cytometry (reference value: 46.68 +/- 0.21%); type: functional

With `N=C(N)c1ccc(-n2ccc(-c3nc4ccc(C(=N)N)cc4[nH]3)n2)cc1` the Activity ([1]; miga9, at 20 µM) was 10.43%, the IC50 [2] was over 50 µM and the Activity [3] was 0.67%. For the same compound, the Activity ([4]; miga9, at 15 µM) was 8.64%.

For `N=C(N)c1ccc(-c2ccc(-c3ccc(C(=N)N)cc3)o2)cc1` [FURAMIDINE], the Drug transport [5] was “Active”.

`N=C(N)c1ccc(-c2ccc(-c3cc4ccc(C(=N)N)cc4[nH]3)o2)cc1` showed a ΔTm (HOXA9 DNA binding site [6]) of 7 °C, an Activity ([4]; dose 15 µM, time 24 hrs) of 11.76% and a ΔTm (HOXA9 DNA binding site [7]) of over 10 °C. The inhibition (HOXA9 DNA binding site [8]) was “Active” and the Drug transport [5] was “Active”.

For `COc1cc(C(=N)N)ccc1-c1ccc(-c2cc3ccc(C(=N)N)cc3[nH]2)o1`, the Drug transport [5] was “Active”.

For `CC(C)n1c(-c2ccc(-c3ccc(C(=N)N)cc3)s2)nc2cc(-c3ccc(C(=N)N)cc3)ccc21`, the Drug transport [5] was “Active”.

With `N=C(N)c1ccc(-c2ccc(-c3nc4ccc(C(=N)N)cc4[nH]3)o2)c(O)c1` the Drug transport [9] was “Active”.

For `N=C(N)c1ccc(-c2ccc(-c3nc4cc(C(=N)N)ccc4[nH]3)o2)cc1`, the Drug transport [9] was “Active” and the inhibition (HOXA9 DNA binding site [8]) was “inactive”.

For `N=C(N)c1ccc(-c2cnc(-c3ccc(C(=N)N)cc3)o2)cc1`, the inhibition (HOXA9 DNA binding site [8]) was “inactive”.

In the case of `N=C(N)c1ccc(-c2ccc(-c3ccc4ccc(C(=N)N)cc4c3)cc2)cc1`, the ΔTm (HOXA9 DNA binding site [10]) is reported as 8 °C.

For `Cn1c(-c2ccc(-c3ccc(C(=N)N)cc3)s2)nc2cc(C(=N)N)ccc21`, the inhibition (HOXA9 DNA binding site [8]) was “inactive” and the Drug transport [5] was “Active”.

For `Cn1c(-c2ccc(-c3ccc(-c4nc5cc(C(=N)N)ccc5n4C)s3)cc2)nc2cc(C(=N)N)ccc21`, the inhibition (HOXA9 DNA binding site [8]) was “inactive” and the Drug transport [5] was “Active”.

With `Cc1cc(C(=N)N)ccc1-c1ccc(-c2nc3ccc(C(=N)N)cc3[nH]2)o1` the Drug transport [9] was “Active”.

For `N=C(N)c1ccc(-c2cnc(-c3ccc(C(=N)N)cc3)s2)cc1`, the Activity ([1]; dose 20 µM, time 24 hrs) was 5.91%, the Activity [3] was 1.71% and the Activity ([4]; dose 15 µM, time 24 hrs) was 5.69%. For the same compound, the inhibition (HOXA9 DNA binding site [8]) was “Active” and the Drug transport [5] was “Active”.

With `Cn1c(-c2ccc(-c3ccc(C(=N)N)cc3)o2)nc2cc(C(=N)N)ccc21` the inhibition (HOXA9 DNA binding site [8]) was “inactive” and the Drug transport [5] was “Active”.

In the case of `N=C(N)c1ccc2nc(-c3ccc(-c4ccc(C(=N)N)nc4)o3)[nH]c2c1`, the Drug transport [9] is reported as “Active” and the inhibition (HOXA9 DNA binding site [8]) is reported as “inactive”.

In the case of `N=C(Nc1ccc(-c2ccc(-c3ccc(NC(=N)c4ccccc4)cc3)[nH]2)cc1)c1ccccc1`, the Activity [11] is reported as 2.47%, the Activity [12] is reported as 12.9% and the Activity [13] is reported as 38.84%. For the same compound, the Activity [14] was 68.8%, the Activity [15] was 53.83% and the Activity [16] was 7.32%. It also gave an Activity [17] of 99.33%, a ΔTm (HOXA9 DNA binding site [10]) of 8 °C and an Activity [18] of 18.33%. For the same compound, the Drug transport [5] was “Active”.

Compound `N=C(N)c1ccc(-c2ccc(-c3cc4ccc(C(=N)N)cc4[nH]3)s2)cc1` has an Activity [19] of 77.87%, an Activity [20] of 77.92% and an Activity [21] of 7.42%. For the same compound, the Activity [22] was 33.64%, the Activity [23] was 12.93% and the ΔTm (HOXA9 DNA binding site [7]) was over 10 °C. The Drug transport [5] was “Active” and the Activity [24] was 9.15%.

With `N=C(N)c1ccc(-c2cccc(-c3nc4cc(C(=N)N)ccc4[nH]3)c2)cc1` the Drug transport [5] was “Not Active”.

In the case of `N=C(N)c1ccc(-c2ccc(-c3nc4ccc(C(=N)N)cc4[nH]3)o2)nc1`, the Drug transport [9] is reported as “Active” and the Drug transport [5] is reported as “Active”.

With `N=C(N)c1ccc(-c2ccc(-c3cc4cc(C(=N)N)ccc4[nH]3)o2)nc1` the Drug transport [5] was “Active”.

In the case of `N=C(N)c1ccc(-c2ccc(-c3cc4ccc(C(=N)N)cc4[nH]3)s2)nc1`, the Activity [19] is reported as 39.4%, the Activity [20] is reported as 67.95% and the Activity [21] is reported as 6.21%. For the same compound, the Activity [22] was 4.48%, the ΔTm (HOXA9 DNA binding site [6]) was 7 °C and the Activity [23] was 9.5%. The ΔTm (HOXA9 DNA binding site [7]) was over 10 °C and the Activity [24] was 22.55%.
